This note sets out measurements from BindingDB's records for doi:10.1124/mol.57.3.642 (National Institute On Drug Abuse, 2000).

Test [1] concerns the target Nicotinic acetylcholine receptor (Rattus leucopus, UniProt Q62594).
Test [2] concerns the target Neuronal acetylcholine receptor subunit alpha-4 (Rattus norvegicus, UniProt P09483).
In test [3] the target is Neuronal acetylcholine receptor subunit alpha-7 (Rattus norvegicus, UniProt Q05941).
Test [4] concerns the target Neuronal acetylcholine receptor subunit alpha-9 (Rattus norvegicus, UniProt P43144).
The target in test [5] is Neuronal acetylcholine receptor subunit alpha-3 (Rattus norvegicus, UniProt P04757).
Neuronal acetylcholine receptor subunit alpha-3, sequence (P04757 whole entry): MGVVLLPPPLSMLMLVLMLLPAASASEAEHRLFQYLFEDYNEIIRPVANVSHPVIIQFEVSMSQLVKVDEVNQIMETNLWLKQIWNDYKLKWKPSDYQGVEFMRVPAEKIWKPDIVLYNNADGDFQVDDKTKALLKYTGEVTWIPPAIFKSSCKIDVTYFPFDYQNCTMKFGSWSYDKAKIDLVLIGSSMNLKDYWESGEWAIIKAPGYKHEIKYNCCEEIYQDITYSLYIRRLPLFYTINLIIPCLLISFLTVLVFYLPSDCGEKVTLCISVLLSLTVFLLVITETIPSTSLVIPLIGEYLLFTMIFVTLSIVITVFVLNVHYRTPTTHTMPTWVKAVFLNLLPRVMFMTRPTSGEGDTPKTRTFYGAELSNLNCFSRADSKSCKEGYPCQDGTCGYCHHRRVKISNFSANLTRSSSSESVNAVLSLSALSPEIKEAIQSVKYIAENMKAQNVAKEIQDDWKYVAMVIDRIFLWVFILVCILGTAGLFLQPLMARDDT

pKi: −log10 of the molar value. Structures can show the parent of a compound that is named as a salt.

Neuronal acetylcholine receptor subunit alpha-9, sequence (P43144 whole entry): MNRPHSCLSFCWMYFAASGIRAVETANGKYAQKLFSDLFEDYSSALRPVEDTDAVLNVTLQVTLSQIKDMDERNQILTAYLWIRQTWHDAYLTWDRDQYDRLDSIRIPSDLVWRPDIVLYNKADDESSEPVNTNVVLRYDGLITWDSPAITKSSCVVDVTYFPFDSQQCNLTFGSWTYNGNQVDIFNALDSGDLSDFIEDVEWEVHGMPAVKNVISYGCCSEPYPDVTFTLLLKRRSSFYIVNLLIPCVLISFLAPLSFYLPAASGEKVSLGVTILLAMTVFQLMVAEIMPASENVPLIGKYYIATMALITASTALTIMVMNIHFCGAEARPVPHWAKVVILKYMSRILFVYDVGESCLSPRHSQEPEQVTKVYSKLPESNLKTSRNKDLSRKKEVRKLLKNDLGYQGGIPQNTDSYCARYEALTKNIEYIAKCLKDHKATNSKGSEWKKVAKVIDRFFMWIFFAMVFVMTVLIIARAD
Nicotinic acetylcholine receptor, sequence (Q62594 whole entry): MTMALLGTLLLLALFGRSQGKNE
Neuronal acetylcholine receptor subunit alpha-4, sequence (P09483 whole entry): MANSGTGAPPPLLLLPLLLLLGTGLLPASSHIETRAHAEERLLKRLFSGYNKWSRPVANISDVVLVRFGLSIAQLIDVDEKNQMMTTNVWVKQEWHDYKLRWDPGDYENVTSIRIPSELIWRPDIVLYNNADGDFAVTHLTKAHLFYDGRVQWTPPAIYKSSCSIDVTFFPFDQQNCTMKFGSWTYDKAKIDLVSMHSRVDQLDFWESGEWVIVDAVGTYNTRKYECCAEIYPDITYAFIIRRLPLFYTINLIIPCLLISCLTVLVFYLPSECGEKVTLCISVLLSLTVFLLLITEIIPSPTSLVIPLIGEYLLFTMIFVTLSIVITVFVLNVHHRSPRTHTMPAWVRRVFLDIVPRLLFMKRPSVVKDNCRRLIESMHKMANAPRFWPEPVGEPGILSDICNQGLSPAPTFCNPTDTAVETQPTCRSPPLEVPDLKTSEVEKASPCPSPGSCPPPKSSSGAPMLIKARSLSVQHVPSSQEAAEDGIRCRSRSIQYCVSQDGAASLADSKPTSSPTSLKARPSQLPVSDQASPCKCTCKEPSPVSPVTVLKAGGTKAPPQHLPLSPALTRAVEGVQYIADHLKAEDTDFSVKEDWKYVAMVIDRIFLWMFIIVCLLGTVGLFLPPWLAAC
Neuronal acetylcholine receptor subunit alpha-7, sequence (Q05941 whole entry): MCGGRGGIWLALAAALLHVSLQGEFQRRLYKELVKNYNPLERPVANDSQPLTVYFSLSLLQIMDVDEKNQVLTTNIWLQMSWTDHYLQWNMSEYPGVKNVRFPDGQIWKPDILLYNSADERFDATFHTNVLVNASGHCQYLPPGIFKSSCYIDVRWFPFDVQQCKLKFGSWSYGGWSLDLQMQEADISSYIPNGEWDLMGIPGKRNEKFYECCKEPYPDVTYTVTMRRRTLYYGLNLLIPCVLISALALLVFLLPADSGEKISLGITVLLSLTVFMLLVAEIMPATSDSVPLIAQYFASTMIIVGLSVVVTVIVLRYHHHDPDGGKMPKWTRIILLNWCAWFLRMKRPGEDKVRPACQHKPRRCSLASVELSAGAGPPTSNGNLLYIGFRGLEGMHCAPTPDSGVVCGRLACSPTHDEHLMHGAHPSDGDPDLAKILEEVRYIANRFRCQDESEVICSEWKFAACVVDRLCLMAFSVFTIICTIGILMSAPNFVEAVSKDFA

In general, pKi refers to the negative decadic logarithm of the Ki, by convention in mol/L. High values mean a low Ki, low ones a high Ki. The compound `CNC(=O)Oc1ccc2c(c1)[C@]1(C)CCN(C)C1N2C` (stereo partly drawn) had a pKi in test [1] of under 5.00.

For the compound `c1cncc(OC[C@@H]2CCN2)c1`, the results for the pKi in test [2], in test [3] and in test [4] were 11.00, 7.77 and 6.49, respectively.

As to `C=C(C=O)C[C@H]1C[C@H](O)[C@]2(C)O[C@@H]3C[C@@H]4O[C@@H]5C[C@]6(C)O[C@]7(C)CC[C@@H]8O[C@@H]9C[C@]%10(C)O[C@@H]%11C(C)=CC(=O)O[C@H]%11C[C@H]%10O[C@H]9C[C@@H](C)[C@H]8O[C@H]7C[C@H]6O[C@@]5(C)C/C=C\[C@H]4O[C@H]3C[C@H]2O1`, the negative logarithm of the Ki (pKi) in test [1] was 5.60.

Consider `O=C(CCCN1CCC(O)(c2ccc(Cl)cc2)CC1)c1ccc(F)cc1` [4-[4-(4-Chloro-phenyl)-4-hydroxy-piperidin-1-yl]-1-(4-fluoro-phenyl)-butan-1-one;propionate(HCl)], for which the negative-log Ki (pKi) in test [1] is under 5.00.

`O=c1cccc2n1C[C@H]1CNC[C@H]2C1` [(1S,9R)-7,11-diazatricyclo[7.3.1.0~2,7~]trideca-2,4-dien-6-one]: the pKi in test [2] is 9.74; in test [3] it was 6.59; in test [4] it was 6.72; in test [5] it was 7.27.

As to `CN1CCc2cccc3c2[C@H]1Cc1ccc(O)c(O)c1-3` [APOKYN], in test [1], the negative-log Ki (pKi) is under 5.00.

The compound `CN1[C@@H]2CC[C@H]1CC(OC(=O)[C@H](CO)c1ccccc1)C2` (stereo partly drawn) [CAS_51-55-8] gave a pKi in test [1] of under 5.00.

In test [1], `COc1cc2c3cc1Oc1cc(ccc1O)CC1c4c(cc(OC)c(O)c4Oc4ccc(cc4)CC3[N+](C)(C)CC2)CC[N+]1(C)C` (stereo not drawn) [CAS_8063-06-7] gave a pKi of 6.14.

For the compound `Ic1ccc(C2CC3CCC2N3)cn1` (stereo not drawn) [IPH], the pKi was 10.70 in test [2], 7.52 in test [3], 8.19 in test [4] and 9.96 in test [5].

`C=CCN1CC[C@]23c4c5ccc(O)c4O[C@H]2C(=O)CC[C@@]3(O)[C@H]1C5` [[17-(2,3-3H-2-propenyl)]-4,5a-epoxy-3,14-dihydroxymorphinan-6-one] had a pKi in test [1] of under 5.00.
